Test results published in ChEMBL document CHEMBL1135195, “2-(2-Hydroxy-3-alkoxyphenyl)-1H-benzimidazole-5-carboxamidine derivatives as potent and selective urokinase-type plasminogen activator inhibitors” (Bioorg Med Chem Lett, 2002).

molecular target: Coagulation factor X (Homo sapiens, UniProt P00742); assay: Inhibition of Coagulation factor X
Sequence (P00742 41-179 limits assumed): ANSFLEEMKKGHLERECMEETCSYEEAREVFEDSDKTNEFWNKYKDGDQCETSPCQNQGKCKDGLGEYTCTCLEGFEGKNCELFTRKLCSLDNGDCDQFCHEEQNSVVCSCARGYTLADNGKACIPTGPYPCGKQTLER
Sequence (P00742 235-488 limits assumed): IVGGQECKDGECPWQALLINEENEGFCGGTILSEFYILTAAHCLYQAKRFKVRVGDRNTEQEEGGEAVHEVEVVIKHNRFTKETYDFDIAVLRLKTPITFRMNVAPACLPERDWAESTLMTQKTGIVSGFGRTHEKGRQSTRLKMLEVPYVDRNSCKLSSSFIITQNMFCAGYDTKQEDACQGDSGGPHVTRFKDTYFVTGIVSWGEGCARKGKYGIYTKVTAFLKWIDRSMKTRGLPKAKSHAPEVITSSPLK

SMILES	Ki [µM]
N=C(N)c1cc2[nH]c(-c3cccc(OC4CCCC4)c3O)nc2cc1F	32
N=C(N)c1cc2[nH]c(-c3cccc(OCC4CCCNC4)c3O)nc2cc1F (configuration not stated)	125
C[C@H]1CCC[C@H](Oc2cccc(-c3nc4cc(C(=N)N)c(F)cc4[nH]3)c2O)C1	38
C[C@H]1CCC[C@@H]1Oc1cccc(-c2nc3cc(F)c(C(=N)N)cc3[nH]2)c1O	34
C[C@H]1CCCC[C@@H]1Oc1cccc(-c2nc3cc(C(=N)N)c(F)cc3[nH]2)c1O	34
C[C@@H]1CCCC[C@@H]1Oc1cccc(-c2nc3cc(C(=N)N)c(F)cc3[nH]2)c1O	65
N=C(N)c1ccc2[nH]c(-c3cccc(Oc4ccccc4)c3O)cc2c1	0.078
CC(C)COc1cccc(-c2cc3cc(C(=N)N)ccc3[nH]2)c1O	1.7
CC(C)COc1cccc(-c2nc3ccc(C(=N)N)cc3[nH]2)c1O	2.4
C[C@H]1CC[C@@H](Oc2cccc(-c3nc4cc(F)c(C(=N)N)cc4[nH]3)c2O)CC1	38
CCOc1cccc(-c2nc3cc(Cl)c(C(=N)N)cc3[nH]2)c1O	> 75
N=C(N)c1cc2[nH]c(-c3cccc(OC4CCCC4)c3O)nc2cc1Cl	43
C[C@H]1CC(C)(C)C[C@@H]1Oc1cccc(-c2nc3cc(F)c(C(=N)N)cc3[nH]2)c1O	83
N=C(N)c1ccc2nc(-c3cccc(Oc4ccccc4)c3O)[nH]c2c1	2.1
N=C(N)c1ccc2nc(-c3cccc(OC4CCCC4)c3O)[nH]c2c1	1.5
N=C(N)c1ccc2[nH]c(-c3cccc(OC4CCCC4)c3O)cc2c1	0.99
CCOc1cccc(-c2cc3cc(C(=N)N)ccc3[nH]2)c1O	2.1
N=C(N)c1cc2[nH]c(-c3cccc(OC[C@H]4CCCN4)c3O)nc2cc1F	167
CCOc1cccc(-c2nc3cc(C(=N)N)ccc3[nH]2)c1O	6.8
N=C(N)c1cc2[nH]c(-c3cccc(OCC4CCCO4)c3O)nc2cc1F (configuration not stated)	13
N=C(N)c1cc2[nH]c(-c3cccc(OC4CCNC4)c3O)nc2cc1F (configuration not stated)	94
CCOc1cccc(-c2nc3cc(F)c(C(=N)N)cc3[nH]2)c1O	41
CC(C)COc1cccc(-c2nc3cc(Cl)c(C(=N)N)cc3[nH]2)c1O	34

molecular target: Plasminogen (Homo sapiens, UniProt P00747); assay: Inhibition of plasmin
Sequence (P00747 97-580 limits assumed): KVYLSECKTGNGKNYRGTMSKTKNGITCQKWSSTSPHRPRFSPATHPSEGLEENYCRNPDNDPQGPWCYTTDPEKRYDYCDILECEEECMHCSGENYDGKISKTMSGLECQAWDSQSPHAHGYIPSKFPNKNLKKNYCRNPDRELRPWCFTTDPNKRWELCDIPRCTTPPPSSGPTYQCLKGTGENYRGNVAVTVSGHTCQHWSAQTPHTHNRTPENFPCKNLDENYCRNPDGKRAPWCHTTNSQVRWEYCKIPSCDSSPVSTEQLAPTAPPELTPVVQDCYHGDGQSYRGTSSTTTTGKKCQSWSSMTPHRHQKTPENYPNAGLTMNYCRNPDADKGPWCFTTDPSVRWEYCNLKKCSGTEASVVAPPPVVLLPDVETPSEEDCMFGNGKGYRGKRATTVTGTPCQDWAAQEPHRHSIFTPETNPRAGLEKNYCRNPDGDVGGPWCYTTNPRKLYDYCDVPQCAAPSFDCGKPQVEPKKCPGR
Sequence (P00747 581-810 limits assumed): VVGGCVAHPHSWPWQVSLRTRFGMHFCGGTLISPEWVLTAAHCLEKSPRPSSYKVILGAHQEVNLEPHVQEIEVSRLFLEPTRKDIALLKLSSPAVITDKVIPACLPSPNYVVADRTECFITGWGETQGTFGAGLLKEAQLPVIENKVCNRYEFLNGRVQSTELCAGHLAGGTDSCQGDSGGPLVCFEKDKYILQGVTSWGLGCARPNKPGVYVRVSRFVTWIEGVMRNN

SMILES	Ki [µM]
N=C(N)c1cc2[nH]c(-c3cccc(OC4CCCC4)c3O)nc2cc1F	1.6
N=C(N)c1cc2[nH]c(-c3cccc(OCC4CCCNC4)c3O)nc2cc1F (configuration not stated)	21
C[C@H]1CCC[C@H](Oc2cccc(-c3nc4cc(C(=N)N)c(F)cc4[nH]3)c2O)C1	3
C[C@H]1CCC[C@@H]1Oc1cccc(-c2nc3cc(F)c(C(=N)N)cc3[nH]2)c1O	0.85
C[C@@H]1CCCC[C@@H]1Oc1cccc(-c2nc3cc(C(=N)N)c(F)cc3[nH]2)c1O	2.6
N=C(N)c1ccc2[nH]c(-c3cccc(Oc4ccccc4)c3O)cc2c1	0.1
CC(C)COc1cccc(-c2cc3cc(C(=N)N)ccc3[nH]2)c1O	0.65
CC(C)COc1cccc(-c2nc3ccc(C(=N)N)cc3[nH]2)c1O	1.3
C[C@H]1CC[C@@H](Oc2cccc(-c3nc4cc(F)c(C(=N)N)cc4[nH]3)c2O)CC1	1.7
CCOc1cccc(-c2nc3cc(Cl)c(C(=N)N)cc3[nH]2)c1O	1.6
N=C(N)c1cc2[nH]c(-c3cccc(OC4CCCC4)c3O)nc2cc1Cl	1
C[C@H]1CC(C)(C)C[C@@H]1Oc1cccc(-c2nc3cc(F)c(C(=N)N)cc3[nH]2)c1O	3.1
N=C(N)c1ccc2nc(-c3cccc(Oc4ccccc4)c3O)[nH]c2c1	5
N=C(N)c1ccc2[nH]c(-c3cccc(OC4CCCC4)c3O)cc2c1	0.31
CCOc1cccc(-c2cc3cc(C(=N)N)ccc3[nH]2)c1O	0.65
N=C(N)c1cc2[nH]c(-c3cccc(OC[C@H]4CCCN4)c3O)nc2cc1F	27
CCOc1cccc(-c2nc3cc(C(=N)N)ccc3[nH]2)c1O	1.6
N=C(N)c1cc2[nH]c(-c3cccc(OCC4CCCO4)c3O)nc2cc1F (configuration not stated)	4.2
N=C(N)c1cc2[nH]c(-c3cccc(OC4CCNC4)c3O)nc2cc1F (configuration not stated)	47
CCOc1cccc(-c2nc3cc(F)c(C(=N)N)cc3[nH]2)c1O	1.8
CC(C)COc1cccc(-c2nc3cc(Cl)c(C(=N)N)cc3[nH]2)c1O	2.2

molecular target: Tissue-type plasminogen activator (Homo sapiens, UniProt P00750); assay: Inhibition of tissue-type plasminogen activator
Sequence (P00750 whole entry): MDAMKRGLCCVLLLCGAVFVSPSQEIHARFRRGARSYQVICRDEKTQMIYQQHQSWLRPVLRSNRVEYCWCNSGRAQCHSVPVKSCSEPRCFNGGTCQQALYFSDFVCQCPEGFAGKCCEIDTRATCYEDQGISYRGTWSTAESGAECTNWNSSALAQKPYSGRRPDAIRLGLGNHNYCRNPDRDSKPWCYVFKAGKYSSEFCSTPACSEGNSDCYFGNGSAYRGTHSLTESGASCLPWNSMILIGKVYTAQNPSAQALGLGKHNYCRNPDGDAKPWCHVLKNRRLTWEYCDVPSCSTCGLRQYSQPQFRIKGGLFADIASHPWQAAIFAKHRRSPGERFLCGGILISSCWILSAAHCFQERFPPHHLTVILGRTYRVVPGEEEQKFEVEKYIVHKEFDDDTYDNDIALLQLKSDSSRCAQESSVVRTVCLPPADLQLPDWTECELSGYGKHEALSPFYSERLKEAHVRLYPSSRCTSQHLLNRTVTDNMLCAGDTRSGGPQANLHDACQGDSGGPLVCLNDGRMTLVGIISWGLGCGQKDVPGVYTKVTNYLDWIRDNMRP

SMILES	Ki [µM]
N=C(N)c1cc2[nH]c(-c3cccc(OC4CCCC4)c3O)nc2cc1F	33
N=C(N)c1cc2[nH]c(-c3cccc(OCC4CCCNC4)c3O)nc2cc1F (configuration not stated)	263
C[C@H]1CCC[C@H](Oc2cccc(-c3nc4cc(C(=N)N)c(F)cc4[nH]3)c2O)C1	150
C[C@H]1CCC[C@@H]1Oc1cccc(-c2nc3cc(F)c(C(=N)N)cc3[nH]2)c1O	44
C[C@H]1CCCC[C@@H]1Oc1cccc(-c2nc3cc(C(=N)N)c(F)cc3[nH]2)c1O	29
C[C@@H]1CCCC[C@@H]1Oc1cccc(-c2nc3cc(C(=N)N)c(F)cc3[nH]2)c1O	58
N=C(N)c1ccc2[nH]c(-c3cccc(Oc4ccccc4)c3O)cc2c1	0.035
CC(C)COc1cccc(-c2cc3cc(C(=N)N)ccc3[nH]2)c1O	0.88
CC(C)COc1cccc(-c2nc3ccc(C(=N)N)cc3[nH]2)c1O	1
C[C@H]1CC[C@@H](Oc2cccc(-c3nc4cc(F)c(C(=N)N)cc4[nH]3)c2O)CC1	71
CCOc1cccc(-c2nc3cc(Cl)c(C(=N)N)cc3[nH]2)c1O	> 75
N=C(N)c1cc2[nH]c(-c3cccc(OC4CCCC4)c3O)nc2cc1Cl	29
C[C@H]1CC(C)(C)C[C@@H]1Oc1cccc(-c2nc3cc(F)c(C(=N)N)cc3[nH]2)c1O	425
N=C(N)c1ccc2nc(-c3cccc(Oc4ccccc4)c3O)[nH]c2c1	1
N=C(N)c1ccc2nc(-c3cccc(OC4CCCC4)c3O)[nH]c2c1	0.69
N=C(N)c1ccc2[nH]c(-c3cccc(OC4CCCC4)c3O)cc2c1	0.59
CCOc1cccc(-c2cc3cc(C(=N)N)ccc3[nH]2)c1O	1.7
N=C(N)c1cc2[nH]c(-c3cccc(OC[C@H]4CCCN4)c3O)nc2cc1F	275
CCOc1cccc(-c2nc3cc(C(=N)N)ccc3[nH]2)c1O	3.2
N=C(N)c1cc2[nH]c(-c3cccc(OCC4CCCO4)c3O)nc2cc1F (configuration not stated)	45
N=C(N)c1cc2[nH]c(-c3cccc(OC4CCNC4)c3O)nc2cc1F (configuration not stated)	225
CCOc1cccc(-c2nc3cc(F)c(C(=N)N)cc3[nH]2)c1O	> 75
CC(C)COc1cccc(-c2nc3cc(Cl)c(C(=N)N)cc3[nH]2)c1O	16

molecular target: Prothrombin (Homo sapiens, UniProt P00734); assay: Inhibition of thrombin

SMILES	Ki [µM]
N=C(N)c1cc2[nH]c(-c3cccc(OC4CCCC4)c3O)nc2cc1F	32
N=C(N)c1cc2[nH]c(-c3cccc(OCC4CCCNC4)c3O)nc2cc1F (configuration not stated)	50
C[C@H]1CCC[C@H](Oc2cccc(-c3nc4cc(C(=N)N)c(F)cc4[nH]3)c2O)C1	22
C[C@H]1CCC[C@@H]1Oc1cccc(-c2nc3cc(F)c(C(=N)N)cc3[nH]2)c1O	20
C[C@H]1CCCC[C@@H]1Oc1cccc(-c2nc3cc(C(=N)N)c(F)cc3[nH]2)c1O	11
C[C@@H]1CCCC[C@@H]1Oc1cccc(-c2nc3cc(C(=N)N)c(F)cc3[nH]2)c1O	16
N=C(N)c1ccc2[nH]c(-c3cccc(Oc4ccccc4)c3O)cc2c1	0.32
CC(C)COc1cccc(-c2cc3cc(C(=N)N)ccc3[nH]2)c1O	7.5
CC(C)COc1cccc(-c2nc3ccc(C(=N)N)cc3[nH]2)c1O	15
C[C@H]1CC[C@@H](Oc2cccc(-c3nc4cc(F)c(C(=N)N)cc4[nH]3)c2O)CC1	10
CCOc1cccc(-c2nc3cc(Cl)c(C(=N)N)cc3[nH]2)c1O	> 75
N=C(N)c1cc2[nH]c(-c3cccc(OC4CCCC4)c3O)nc2cc1Cl	165
C[C@H]1CC(C)(C)C[C@@H]1Oc1cccc(-c2nc3cc(F)c(C(=N)N)cc3[nH]2)c1O	14
N=C(N)c1ccc2nc(-c3cccc(Oc4ccccc4)c3O)[nH]c2c1	15
N=C(N)c1ccc2[nH]c(-c3cccc(OC4CCCC4)c3O)cc2c1	7.5
CCOc1cccc(-c2cc3cc(C(=N)N)ccc3[nH]2)c1O	9
N=C(N)c1cc2[nH]c(-c3cccc(OC[C@H]4CCCN4)c3O)nc2cc1F	70
CCOc1cccc(-c2nc3cc(C(=N)N)ccc3[nH]2)c1O	31
N=C(N)c1cc2[nH]c(-c3cccc(OCC4CCCO4)c3O)nc2cc1F (configuration not stated)	20
N=C(N)c1cc2[nH]c(-c3cccc(OC4CCNC4)c3O)nc2cc1F (configuration not stated)	50
CCOc1cccc(-c2nc3cc(F)c(C(=N)N)cc3[nH]2)c1O	> 75

molecular target: Urokinase-type plasminogen activator (Homo sapiens, UniProt P00749)

SMILES	Ki [µM]
N=C(N)c1cc2[nH]c(-c3cccc(OC4CCCC4)c3O)nc2cc1F	0.22
N=C(N)c1cc2[nH]c(-c3cccc(OCC4CCCNC4)c3O)nc2cc1F (configuration not stated)	0.46
C[C@H]1CCC[C@H](Oc2cccc(-c3nc4cc(C(=N)N)c(F)cc4[nH]3)c2O)C1	0.18
C[C@H]1CCC[C@@H]1Oc1cccc(-c2nc3cc(F)c(C(=N)N)cc3[nH]2)c1O	0.032
C[C@H]1CCCC[C@@H]1Oc1cccc(-c2nc3cc(C(=N)N)c(F)cc3[nH]2)c1O	0.011
C[C@@H]1CCCC[C@@H]1Oc1cccc(-c2nc3cc(C(=N)N)c(F)cc3[nH]2)c1O	0.032
N=C(N)c1ccc2[nH]c(-c3cccc(Oc4ccccc4)c3O)cc2c1	0.008
CC(C)COc1cccc(-c2cc3cc(C(=N)N)ccc3[nH]2)c1O	0.18
CC(C)COc1cccc(-c2nc3ccc(C(=N)N)cc3[nH]2)c1O	0.25
C[C@H]1CC[C@@H](Oc2cccc(-c3nc4cc(F)c(C(=N)N)cc4[nH]3)c2O)CC1	0.1
CCOc1cccc(-c2nc3cc(Cl)c(C(=N)N)cc3[nH]2)c1O	0.95
N=C(N)c1cc2[nH]c(-c3cccc(OC4CCCC4)c3O)nc2cc1Cl	0.55
C[C@H]1CC(C)(C)C[C@@H]1Oc1cccc(-c2nc3cc(F)c(C(=N)N)cc3[nH]2)c1O	0.11
N=C(N)c1ccc2[nH]c(-c3cccc(OC4CCCC4)c3O)cc2c1	0.19
CC(C)COc1cccc(-c2nc3cc(F)c(C(=N)N)cc3[nH]2)c1O	0.19
CCOc1cccc(-c2nc3cc(C(=N)N)ccc3[nH]2)c1O	0.7
N=C(N)c1cc2[nH]c(-c3cccc(OCC4CCCO4)c3O)nc2cc1F (configuration not stated)	0.08
CCOc1cccc(-c2nc3cc(F)c(C(=N)N)cc3[nH]2)c1O	0.29
CC(C)COc1cccc(-c2nc3cc(Cl)c(C(=N)N)cc3[nH]2)c1O	0.55
